These results are taken from ChEMBL document CHEMBL1138873, “A novel antiproliferative agent, phenylpyridineylbutenol, isolated from Streptomyces sp” (Bioorg Med Chem Lett, 2006).

Common to all, as to assay type: functional, cell-based
One assay concerns HepG2. Nature of the assay: Antiproliferative activity against human HepG2 by MTT assay. In general terms: Tetrazolium dyes change colour on reduction, which living cells bring about.
The subject of another assay is HeLa. Nature of the assay: Antiproliferative activity against human HeLa by MTT assay.
For a further assay, the system named is A549. Nature of the assay: Antiproliferative activity against human A549 by MTT assay.
For the next assay, the system named is AGS. The experiment in a line: Antiproliferative activity against human AGS by MTT assay.

Structures are written as SMILES.

Broadly, the IC50 is the concentration that inhibits the measured activity by half.

Turning to `OC/C=C(\Cc1ccccc1)c1ccccn1`, the IC50 was determined as 1600 µM in the assay on HepG2, 1380 µM in the assay with HeLa, 1130 µM with A549 and 1980 µM in the assay with AGS.
